Measurements: PMC8742467, “Therapeutical interference with the epigenetic landscape of germ cell tumors: a comparative drug study and new mechanistical insights” (Clinical Epigenetics, 2022)

Columns and labels:
Assay type in all cases: cell-based, Human
GCT cell lines = experiment: XTT cell viability assay, GCT cell lines (pre-screen / summary); settings: first pre-screen, SE and EC proxies TCam-2 and 2102EP, XTT
In short: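 Viability by XTT reduction after drug or solvent addition one day post-seeding; seeding density 3 × 10^3 cells/well for UC lines and 5 × 10^3 for GCT lines. Four technical replicates each; EC50 values derived by curve fitting.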

fibroblast control cells = experiment: Flow cytometry apoptosis (Annexin V/PI), fibroblasts; settings: EC50, 16 h
Method: For Annexin V/PI staining, cells were washed with Annexin V Binding Buffer before being resuspended in 70 µl Annexin V Binding Buffer and 2.5 μl Annexin V FITC-conjugate (both Miltenyi Biotec, Bergisch Gladbach, Germany) and 15 µg PI (Sigma-Aldrich, Taufkirchen, Germany) and incubated in the dark at room temperature for 15 min. 500 µl of Annexin V Binding Buffer was added before measurement. For the cell cycle analysis, cells were washed with PBS (phosphate buffered saline), fixed by ice cold 70% ethanol and stained with 2 µg/ml PI and 200 µg/ml RNaseA (Quiagen, Hilden, Germany 100 mg/ml) in PBS shortly before every measurement. At least 5 × 10^4 cells were counted and analyzed using the MACSQuant software v 2.13.0.

[1] = tested on: histone modifications in 2102EP cells; experiment: Mass spectrometry analysis of histone modifications (Mod Spec); settings: 2102EP cells; Mod Spec raw data
Method: 2102EP cells were treated with the EC50 concentrations for Quisinostat, JIB-04, Chaetocin, MZ-1, LP99, PRT4165, GSK343 and DMSO as solvent control. The cells were harvested via trypsinization after 16 h. The mass spectrometric analysis of histone modifications was outsourced to the Mod Spec service by Active Motif (Carlsbad, CA, USA). Histone extraction and mass spectrometric analysis was performed as described previously. Raw data were transformed into z-scores as the input. The heatmap was generated in R using ‘pheatmap’ with default settings and provided by Active Motif.

SMILES: Cc1ncsc1-c1ccc(CNC(=O)[C@@H]2C[C@@H](O)CN2C(=O)[C@@H](NC(=O)COCCOCCOCCNC(=O)C[C@@H]2N=C(c3ccc(Cl)cc3)c3c(sc(C)c3C)-n3c(C)nnc32)C(C)(C)C)cc1 [MZ-1]
- EC50 / effective concentration in words (GCT cell lines): nanomolar range
- apoptosis induction in fibroblast control cells (fibroblast control cells): only a weak apoptosis induction
- H1.4: K25AC, % of peptide pool [1]: 0.008625%
- H1.4: K25ME1, % of peptide pool [1]: 2.068%
- H1.4: K25ME2, % of peptide pool [1]: 0.007907%
- H1.4: K25ME3, % of peptide pool [1]: 0.004447%
- H1.4: K25UN, % of peptide pool [1]: 97.9109%
- H2A1: K13AC, % of peptide pool [1]: 0.01664%
- H2A1: K13UN, % of peptide pool [1]: 99.9834%
- H2A1: K15AC, % of peptide pool [1]: 0.002429%
- H2A1: K15UB, % of peptide pool [1]: 0%
- H2A1: K15UN, % of peptide pool [1]: 99.9976%
- H2A3: K13AC, % of peptide pool [1]: 0.02309%
- H2A3: K13UN, % of peptide pool [1]: 99.9769%
- H2A3: K15AC, % of peptide pool [1]: 0.2972%
- H2A3: K15UB, % of peptide pool [1]: 0%
- H2A3: K15UN, % of peptide pool [1]: 99.7028%
- H2A: K5AC, % of peptide pool [1]: 16.7692%
- H2A: K5UN, % of peptide pool [1]: 83.2308%
- H2A: K9AC, % of peptide pool [1]: 1.92%
- H2A: K9UN, % of peptide pool [1]: 98.08%
- H2A: K36AC, % of peptide pool [1]: 0.02873%
- H2A: K36UN, % of peptide pool [1]: 99.9713%
- H3: K9AC, % of peptide pool [1]: 0.8879%
- H3: K9ME1, % of peptide pool [1]: 31.6276%
- H3: K9ME2, % of peptide pool [1]: 28.3662%
- H3: K9ME3, % of peptide pool [1]: 2.878%
- H3: K9UN, % of peptide pool [1]: 36.24%
- H3: K14AC, % of peptide pool [1]: 33.1456%
- H3: K14UN, % of peptide pool [1]: 66.8544%
- H3: K18AC, % of peptide pool [1]: 15.0157%
- H3: K18ME1, % of peptide pool [1]: 0.179%
- H3: K18UN, % of peptide pool [1]: 84.8052%
- H3: K23AC, % of peptide pool [1]: 21.7451%
- H3: K23ME1, % of peptide pool [1]: 0.008431%
- H3: K23UN, % of peptide pool [1]: 78.2464%
- H3: K56AC, % of peptide pool [1]: 0.06901%
- H3: K56ME1, % of peptide pool [1]: 0.03638%
- H3: K56UN, % of peptide pool [1]: 99.8946%
- H3: K64AC, % of peptide pool [1]: 0.06102%
- H3: K64UN, % of peptide pool [1]: 99.939%
- H3: K79AC, % of peptide pool [1]: 0.05432%
- H3: K79ME1, % of peptide pool [1]: 14.344%
- H3: K79ME2, % of peptide pool [1]: 7.357%
- H3: K79ME3, % of peptide pool [1]: 10.1837%
- H3: K79UN, % of peptide pool [1]: 68.0612%
- H3: K122AC, % of peptide pool [1]: 0.03608%
- H3: K122UN, % of peptide pool [1]: 99.9639%
- H3: Q19ME1, % of peptide pool [1]: 0.004515%
- H3: Q19UN, % of peptide pool [1]: 99.9955%
- H3: Q55ME1, % of peptide pool [1]: 0.1937%
- H3: Q55UN, % of peptide pool [1]: 99.8063%
- H3: R42ME2, % of peptide pool [1]: 1.387%
- H3: R42UN, % of peptide pool [1]: 98.6131%
